Toxic doses and inconclusive results are not listed.

In the experiment the test system is L1210 leukemia ip in BDF1 mice, survival T/C. Briefly: NCI In Vivo Anticancer Drug Screen. Data for tumor model L1210 Leukemia (intraperitoneal) in B6D2F1 (BDF1) mice. To be noted: endpoint: mean survival time, higher = longer survival. Put shortly: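 In this screen, tumor-bearing mice given compound are compared to those given vehicle, and their survival values are reported as a treated-to-control quotient.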

The mark [1] stands for this setting: dose: 100.0 mg/kg/injection, schedule: Q01DX009 (ip), vehicle: Klucel (hydroxypropylcellulose) (HPC).
Where [2] appears, read: dose: 200.0 mg/kg/injection, schedule: Q01DX009 (ip), vehicle: Klucel (hydroxypropylcellulose) (HPC).
The mark [3] stands for this setting: dose: 400.0 mg/kg/injection, schedule: Q01DX009 (ip), vehicle: Klucel (hydroxypropylcellulose) (HPC).
Setting [4] is: dose: 100.0 mg/kg/injection, schedule: Q01DX001 (ip), vehicle: saline.
Where [5] appears, read: dose: 200.0 mg/kg/injection, schedule: Q01DX001 (ip), vehicle: saline.
The mark [6] stands for this setting: dose: 400.0 mg/kg/injection, schedule: Q01DX001 (ip), vehicle: saline.
Setting [7] is: dose: 100.0 mg/kg/injection, schedule: Q01DX009 (ip), vehicle: saline.
Setting [8] is: dose: 200.0 mg/kg/injection, schedule: Q01DX009 (ip), vehicle: saline.
The mark [9] stands for this setting: dose: 400.0 mg/kg/injection, schedule: Q01DX009 (ip), vehicle: saline.

Take `O=NN(CCF)C(=O)NC1CC2CCC1C2` (stereo not drawn): the T/C is, setting by setting: (dose: 3.12 mg/kg/injection, schedule: Q01DX001 (ip), vehicle: other) 108 % of control; (dose: 5.7 mg/kg/injection, schedule: Q01DX001 (ip), vehicle: other) 104 % of control; (dose: 6.25 mg/kg/injection, schedule: Q01DX001 (ip), vehicle: other) 118 % of control; (dose: 12.5 mg/kg/injection, schedule: Q01DX001 (ip), vehicle: other) 150 % of control; (dose: 23.0 mg/kg/injection, schedule: Q01DX001 (ip), vehicle: other) 180 % of control; (dose: 25.0 mg/kg/injection, schedule: Q01DX001 (ip), vehicle: other) 180 % of control. The T/C is 308 % of control (dose: 37.0 mg/kg/injection, schedule: Q01DX001 (ip), vehicle: other); 361 % of control (dose: 37.5 mg/kg/injection, schedule: Q01DX001 (ip), vehicle: other); 310 % of control (dose: 46.0 mg/kg/injection, schedule: Q01DX001 (ip), vehicle: other); 348 % of control (dose: 56.0 mg/kg/injection, schedule: Q01DX001 (ip), vehicle: other).

As for `CC/C(=C(\CC)c1ccc(OCCOS(=O)(=O)c2ccc(C)cc2)cc1)c1ccc(OCCOS(=O)(=O)c2ccc(C)cc2)cc1`, the T/C reads like this: (dose: 6.25 mg/kg/injection, schedule: Q04DX002 (ip), vehicle: saline) 101 % of control; (dose: 12.5 mg/kg/injection, schedule: Q04DX002 (ip), vehicle: saline) 105 % of control; (dose: 25.0 mg/kg/injection, schedule: Q04DX002 (ip), vehicle: saline) 97 % of control.

`O=C1NC2CCC1c1ccccc12` (stereo not drawn): the T/C is 110 % of control (dose: 50.0 mg/kg/injection, schedule: Q01DX001 (ip), vehicle: carboxymethylcellulose (CMC)); 105 % of control (dose: 100.0 mg/kg/injection, schedule: Q01DX001 (ip), vehicle: carboxymethylcellulose (CMC)); 108 % of control (dose: 200.0 mg/kg/injection, schedule: Q01DX001 (ip), vehicle: carboxymethylcellulose (CMC)).

For the molecule `CNC(=O)NNC(=O)CNC(=O)Nc1ccc(Cl)c(Cl)c1`, the T/C is 106 % of control under setting [1], 93 % of control under setting [2] and 97 % of control under setting [3].

For `Cc1c2ccccc2cc2[n+]1CCc1ccccc1-2`, the T/C is, setting by setting: (dose: 50.0 mg/kg/injection, schedule: Q04DX003 (ip), vehicle: saline with Tween-80) 100 % of control; (dose: 100.0 mg/kg/injection, schedule: Q01DX001 (ip), vehicle: saline with Tween-80) 98 % of control; (dose: 100.0 mg/kg/injection, schedule: Q04DX003 (ip), vehicle: saline with Tween-80) 105 % of control; (dose: 200.0 mg/kg/injection, schedule: Q01DX001 (ip), vehicle: saline with Tween-80) 96 % of control; (dose: 200.0 mg/kg/injection, schedule: Q04DX003 (ip), vehicle: saline with Tween-80) 107 % of control.

In the case of `COC(=O)c1ccc(=O)n(C/C=C(\C)CCC2OC2(C)C)c1` (stereo not drawn), the T/C is, setting by setting: (dose: 100.0 mg/kg/injection, schedule: Q04DX003 (ip), vehicle: water) 100 % of control; (dose: 200.0 mg/kg/injection, schedule: Q04DX003 (ip), vehicle: water) 104 % of control; (dose: 400.0 mg/kg/injection, schedule: Q04DX003 (ip), vehicle: water) 102 % of control.

For the molecule `Cn1ncc2[nH]c(=O)n(OS(=O)(=O)c3ccccc3)c(=O)c21`, the T/C is, setting by setting: (dose: 50.0 mg/kg/injection, schedule: Q01DX001 (ip), vehicle: saline) 100 % of control; under setting [4], 96 % of control; under setting [5], 96 % of control; under setting [6], 87 % of control.

Consider `N#C/C(=N/O)c1ccccn1`, for which the T/C under setting [1] was 96 % of control; the T/C under setting [7] is 100 % of control; the T/C under setting [2] is 100 % of control; the T/C under setting [8] is 107 % of control; the T/C under setting [9] is 92 % of control.

In the case of `O=C(Cc1ccccc1)c1ccccn1`, the T/C is 95 % of control (dose: 100.0 mg/kg/injection, schedule: Q01DX001 (ip), vehicle: other); 98 % of control (dose: 200.0 mg/kg/injection, schedule: Q01DX001 (ip), vehicle: other); 101 % of control (dose: 400.0 mg/kg/injection, schedule: Q01DX001 (ip), vehicle: other).

Take `COc1ccc(NC(=O)Nc2ccc(C)c(C)c2)cc1`: the T/C was 92 % of control under setting [1]; 97 % of control (dose: 100.0 mg/kg/injection, schedule: Q04DX003 (ip), vehicle: Klucel (hydroxypropylcellulose) (HPC)); 91 % of control under setting [2]; 103 % of control (dose: 200.0 mg/kg/injection, schedule: Q04DX003 (ip), vehicle: Klucel (hydroxypropylcellulose) (HPC)); 91 % of control under setting [3]; 95 % of control (dose: 400.0 mg/kg/injection, schedule: Q04DX003 (ip), vehicle: Klucel (hydroxypropylcellulose) (HPC)).

Consider `CC12CCC3c4cc(N)c(O)cc4CCC3C1CCC2=O` (stereo not drawn), for which the T/C is 92 % of control (dose: 100.0 mg/kg/injection, schedule: Q04DX002 (ip), vehicle: Klucel (hydroxypropylcellulose) (HPC)); 99 % of control (dose: 200.0 mg/kg/injection, schedule: Q04DX002 (ip), vehicle: Klucel (hydroxypropylcellulose) (HPC)); 101 % of control (dose: 400.0 mg/kg/injection, schedule: Q04DX002 (ip), vehicle: Klucel (hydroxypropylcellulose) (HPC)).

As to `Cc1ccc2c(ccc(/C=C/c3ccc(O)c4ccccc34)[n+]2C)c1`, the T/C (dose: 75.0 mg/kg/injection, schedule: Q01DX001 (ip), vehicle: carboxymethylcellulose (CMC)) was 95 % of control; the T/C (dose: 150.0 mg/kg/injection, schedule: Q01DX001 (ip), vehicle: carboxymethylcellulose (CMC)) is 97 % of control; the T/C (dose: 300.0 mg/kg/injection, schedule: Q01DX001 (ip), vehicle: carboxymethylcellulose (CMC)) was 96 % of control.

Regarding `CN(C)C(C(N)=O)C(=O)c1ccccc1` (stereo not drawn), the T/C reads like this: under setting [4], 102 % of control; under setting [5], 104 % of control; under setting [6], 88 % of control.

With `O=C(Nc1cc(C(F)(F)F)cc(C(F)(F)F)c1)Nc1ccccc1C(F)(F)F`, the T/C was 98 % of control under setting [1], 102 % of control under setting [2] and 90 % of control under setting [3].

Take `Cc1c(S(=O)(=O)F)ccc(O)c1[N+](=O)[O-]`: the T/C is 104 % of control under setting [1], 104 % of control under setting [2] and 110 % of control under setting [3].

As to `CC(=O)C(C)(O)C(C)(C)C` (stereo not drawn), the T/C runs as follows: under setting [7], 88 % of control; under setting [8], 90 % of control; under setting [9], 98 % of control.

For the origin of these results see PubChem BioAssay AID248 (DTP/NCI, 2004).
